Earlier results, collected in patent US20060067952A1, “Low oil emulsion compositions for delivering taxoids and other insoluble drugs” (SD Pharmaceuticals, Inc., priority 2004, published 2006).
Read-outs that look alike come from different tables or passages of the source.

Settings: 25° C.

- Volume of solvent required to dissolve 1 gram of the drug (H2O): 300 mL
- Volume of solvent required to dissolve 1 gram of the drug (ethanol): 5 mL
SMILES: CC(=O)Oc1ccccc1C(=O)O [aspirin]
